From US20120022056A1, “FUSED TRICYCLIC DERIVATIVES FOR THE TREATMENT OF PSYCHOTIC DISORDERS” (priority 2005, published 2012)
pKi: −log10 of the molar value. Where a name gives a salt, the structure may show the parent alone.

Molecular target: T1, 5-HT1A receptor (Homo sapiens, UniProt P08908)
T1 construct: expressed in transfected cells; host or cells: HEK293 (membranes)
T1 sequence (P08908 1-422): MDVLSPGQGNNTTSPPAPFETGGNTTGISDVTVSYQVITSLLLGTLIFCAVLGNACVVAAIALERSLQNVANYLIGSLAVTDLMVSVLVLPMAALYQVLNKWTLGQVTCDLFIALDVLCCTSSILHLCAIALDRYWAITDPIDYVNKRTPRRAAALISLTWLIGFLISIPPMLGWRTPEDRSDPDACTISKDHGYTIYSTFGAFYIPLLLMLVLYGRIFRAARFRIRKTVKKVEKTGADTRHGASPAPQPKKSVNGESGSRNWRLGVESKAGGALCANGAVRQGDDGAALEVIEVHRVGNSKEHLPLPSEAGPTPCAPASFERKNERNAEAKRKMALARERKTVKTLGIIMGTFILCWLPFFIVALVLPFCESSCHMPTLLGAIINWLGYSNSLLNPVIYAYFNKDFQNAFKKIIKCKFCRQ
Test: GTPγS binding functional potency assay (primary screen), 5-HT1A
Assay type: biochemical
Details: assay a), membranes of HEK293 cells transfected with human 5-HT1A, read-out: fpKi at the 5-HT1A receptor
Method: a) Functional Potency—Primary Screen
The functional potency may be determined by the following GTPγS binding protocol. Cells used in the study are CHO Cells and Human Embryo Kidney (HEK293). Cells were transfected with DNA coding for human receptors as follows: HEK293—5-HT1A; CHO—5-HT1B; and CH—5-HT1D. Test compounds were initially dissolved in 100% dimethyl sulfoxide to a concentration of 10 mM. Serial dilution of the test compounds in 100% dimethyl sulphoxide was carried out using a Biomek FX in 384 well assay plates, so that the final top concentration of test compound is 3 μM in the assay. Add the test compound at 1.0% total assay volume (TAV) to a solid, white, 384 well assay plate (Costar). Add 50% TAV of precoupled (for 90 mins @ RT) membranes (5 ug/well), Wheatgerm Agglutinin Polystyrene Scintillation Proximity Assay beads (RPNQ0260 Amersham International) (0.25 mg/well) in 20 mM HEPES pH 7.4, 100 mM NaCl, 3 mM MgCl2 and 10 μM GDP. The third addition was a 20% TAV addition of either buffer, agonist format, or EC80 final assay concentration (FAC) of agonist, 5HT antagonist format, prepared in assay buffer. The assay was started by the addition of 29% TAV of GTPγS 0.38 nM FAC. After all additions assay plates were incubated at RT for 2-3 hours. Assay plates were counted on a Viewlux, 613/55 filter for 5 mins. Assay plates were read between 2-6 hours after the final addition.

pKi	Structure (SMILES)
> 8.00	CNC(=O)c1ncn2c1CCc1c(CCN3CCC(c4cccc5nc(C)ccc45)CC3)cccc1-2 [Example 83, N-methyl-6-{2-[4-(2-methyl-5-quinolinyl)-1-piperidinyl]ethyl}-4,5-dihydroimidazo[1,5-a]quinoline-3-carboxamide dihydrochloride]
> 8.00	CNC(=O)c1ncn2c1ccc1c(CCN3CCC(c4cccc5nc(C)ccc45)CC3)cccc12 [Example 89, N-methyl-6-{2-[4-(2-methyl-5-quinolinyl)-1-piperidinyl]ethyl}imidazo[1,5-a]quinoline-3-carboxamide dihydrochloride]
> 8.00	Cc1ccc2c(C3CCN(CCc4cccc5c4ccc4c(C(N)=O)ncn45)CC3)cccc2n1 [Example 91, 6-{2-[4-(2-methyl-5-quinolinyl)-1-piperidinyl]ethyl}imidazo[1,5-a]quinoline-3-carboxamide dihydrochloride]
> 8.00	Cc1ccc2c(N3CCN(CCc4cccc5c4ccc4nnnn45)[C@H](C)C3)cccc2n1 [Example 94, 6-{2-[(2R)-2-methyl-4-(2-methyl-5-quinolinyl)-1-piperazinyl]ethyl}tetrazolo[1,5-a]quinoline dihydrochloride]
> 8.00	CCOC(=O)c1nnn2c1ccc1c(CCN3CCN(c4cccc5nc(C)ccc45)CC3)cccc12 [Example 97, ethyl 6-{2-[4-(2-methyl-5-quinolinyl)-1-piperazinyl]ethyl}[1,2,3]triazolo[1,5-a]quinoline-3-carboxylate dihydrochloride]
> 8.00	Cc1ccc2c(N3CCN(CCc4cccc5c4ccc4c(-c6nc(C)no6)ncn45)[C@H](C)C3)cccc2n1 [Example 105, 6-{2-[(2R)-2-methyl-4-(2-methyl-5-quinolinyl)-1-piperazinyl]ethyl}-3-(3-methyl-1,2,4-oxadiazol-5-yl)imidazo[1,5-a]quinoline dihydrochloride]
> 8.00	Cc1ccc2c(C3CCN(CCc4cccc5c4CCc4c(C(N)=O)ncn4-5)CC3)cccc2n1 [Example 122, 6-{2-[4-(2-methyl-5-quinolinyl)-1-piperidinyl]ethyl}-4,5-dihydroimidazo[1,5-a]quinoline-3-carboxamide dihydrochloride]
> 8.00	CNC(=O)c1ncn2c1COc1c-2ccc(C)c1CCN1CCC(c2cccc3nc(C)ccc23)CC1 [Example 124, N,7-dimethyl-6-{2-[4-(2-methyl-5-quinolinyl)-1-piperidinyl]ethyl}-4H-imidazo[5,1-c][1,4]benzoxazine-3-carboxamide dihydrochloride]
> 8.00	Cc1ccc2c(C3CCN(CCc4c(C)ccc5c4OCc4c(C(N)=O)ncn4-5)CC3)cccc2n1 [Example 125, 7-methyl-6-{2-[4-(2-methyl-5-quinolinyl)-1-piperidinyl]ethyl}-4H-imidazo[5,1-c][1,4]benzoxazine-3-carboxamide dihydrochloride]
